Measured values as given in ChEMBL document CHEMBL1201862, “PubChem BioAssay data set” (2004).
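All cell lines were grown in 96-well plates and treated with compound for 48 hours. At the GI50, growth is halved.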 Activity calls are given as the source filed them. Rule as the data show it: active = GI50 up to about 1.1 µM and inactive = higher.

Tests used:
Assay in all cases: NCI anticancer screen, dose series, 48 h
ACHN = system: ACHN
BT-549 = system: BT-549
CCRF-CEM = system: CCRF-CEM
COLO 205 = system: COLO 205
EKVX = system: EKVX
HL-60 = system: HL-60
HOP-92 = system: HOP-92
K562 = system: K562
M14 = system: M14
MCF7 = system: MCF7
MDA-MB-435 = system: MDA-MB-435
Malme-3M = system: Malme-3M
NCI-H522 = system: NCI-H522
OVCAR-5 = system: OVCAR-5
SK-MEL-2 = system: SK-MEL-2
SK-MEL-5 = system: SK-MEL-5
SN12C = system: SN12C
SNB-75 = system: SNB-75
SW-620 = system: SW-620
TK-10 = system: TK-10

Compound	GI50 (ACHN)	GI50 (BT-549)	GI50 (CCRF-CEM)	GI50 (COLO 205)	GI50 (EKVX)	GI50 (HL-60)	GI50 (HOP-92)	GI50 (K562)	GI50 (M14)	GI50 (MCF7)	GI50 (MDA-MB-435)	GI50 (Malme-3M)	GI50 (NCI-H522)	GI50 (OVCAR-5)	GI50 (SK-MEL-2)	GI50 (SK-MEL-5)	GI50 (SN12C)	GI50 (SNB-75)	GI50 (SW-620)	GI50 (TK-10)
O=C1OC(C2Cc3ccc4c(c3C2=O)CCC4)c2ccccc21 (stereo not given)	38.2 µM (inactive)	42.1 µM (inactive)	46.9 µM (inactive)	20.7 µM (inactive)	51.2 µM (inactive)	27.4 µM (inactive)	56.2 µM (inactive)	43.3 µM (inactive)	51.1 µM (inactive)	50.1 µM (inactive)	40.5 µM (inactive)	94.4 µM (inactive)	> 100 µM (inactive)	85.9 µM (inactive)	64.9 µM (inactive)	43.1 µM (inactive)	36 µM (inactive)	46 µM (inactive)	54.5 µM (inactive)	> 100 µM (inactive)
O=C1Cc2c(-c3ccccc3)cc(-c3ccc(Cl)cc3)nc2-c2ccccc2N1	2.4 µM (inactive)	17.1 µM (inactive)	5.97 µM (inactive)	2.96 µM (inactive)	6.92 µM (inactive)	14.5 µM (inactive)	2.3 µM (inactive)	19 µM (inactive)	9.95 µM (inactive)	8.89 µM (inactive)	8.99 µM (inactive)	5.02 µM (inactive)	2.18 µM (inactive)	11 µM (inactive)	17.1 µM (inactive)	3.65 µM (inactive)	3.33 µM (inactive)	2.03 µM (inactive)	6.7 µM (inactive)	3.41 µM (inactive)
O=C(NCCCCCCNC(=O)n1cc(F)c(=O)[nH]c1=O)NCCCOCCOCCOCCOCCOCCOCCOCCOCCOCCOCCOCCOCCOCCOCCOCCOCCOCCOCCOCCOCCOCCCNC(=O)C(O)C(O)C(O)C(O)CO (stereo not given)	26.7 µM (inactive)	37.7 µM (inactive)	43.9 µM (inactive)	23.8 µM (inactive)	85.9 µM (inactive)	20.8 µM (inactive)	> 18.4 µM (inactive)	34.8 µM (inactive)	75.3 µM (inactive)	4.72 µM (inactive)	55.1 µM (inactive)	20.2 µM (inactive)	> 90.2 µM (inactive)	> 96.4 µM (inactive)	> 100 µM (inactive)	51.9 µM (inactive)	80 µM (inactive)	73.1 µM (inactive)	53.8 µM (inactive)	15.6 µM (inactive)
NC(=O)NOCC1NC(=O)NC1=O (stereo not given)	> 100 µM (inactive)	> 100 µM (inactive)	4.16 µM (inactive)	> 100 µM (inactive)	> 100 µM (inactive)	19.3 µM (inactive)	> 100 µM (inactive)	> 100 µM (inactive)	> 100 µM (inactive)	> 100 µM (inactive)	> 100 µM (inactive)	> 100 µM (inactive)	> 100 µM (inactive)	> 100 µM (inactive)	> 100 µM (inactive)	> 100 µM (inactive)	> 100 µM (inactive)	> 100 µM (inactive)	> 100 µM (inactive)	> 100 µM (inactive)
CN(C)c1ccc(C(Cc2ccccc2)C2NC(=S)NC2=O)cc1 (stereo not given)	> 100 µM (inactive)	> 100 µM (inactive)	> 100 µM (inactive)	> 100 µM (inactive)	> 100 µM (inactive)	29.1 µM (inactive)	> 100 µM (inactive)	31.1 µM (inactive)	> 100 µM (inactive)	> 100 µM (inactive)	> 75.7 µM (inactive)	> 74.8 µM (inactive)	> 100 µM (inactive)	> 100 µM (inactive)	> 100 µM (inactive)	> 100 µM (inactive)	> 100 µM (inactive)	> 100 µM (inactive)	> 100 µM (inactive)	> 100 µM (inactive)
C#C[C@]1(O)[C@@H](CO)O[C@@H](n2ccc(N)nc2=O)[C@@H]1O	< 0.01 µM (active)	0.0834 µM (active)	< 0.0109 µM (active)	< 0.0111 µM (active)	0.173 µM (active)	< 0.0147 µM (active)	0.11 µM (active)	< 0.01 µM (active)	0.107 µM (active)	< 0.01 µM (active)	< 0.01 µM (active)	0.0337 µM (active)	< 0.01 µM (active)	0.209 µM (active)	0.0435 µM (active)	0.0139 µM (active)	< 0.01 µM (active)	0.0327 µM (active)	< 0.01 µM (active)	0.0224 µM (active)
COC(=O)[C@@H]1C=C[C@H](OC2OC(COC(C)=O)C(OC(C)=O)C(OC(C)=O)C2OC(C)=O)n2c(=O)c3ccccc3c(=O)n21 (stereo not given in full)	11.7 µM (inactive)	4.8 µM (inactive)	4.14 µM (inactive)	8.65 µM (inactive)	16.5 µM (inactive)	3.95 µM (inactive)	10.1 µM (inactive)	5.66 µM (inactive)	15.3 µM (inactive)	8.61 µM (inactive)	9.16 µM (inactive)	16.9 µM (inactive)	1.68 µM (inactive)	16 µM (inactive)	9.16 µM (inactive)	14.7 µM (inactive)	> 10 µM (inactive)	6.71 µM (inactive)	12.4 µM (inactive)	2.91 µM (inactive)
CC(=O)[C@@]1(O)CC[C@H]2[C@@H]3C[C@H](C)C4=CC(=O)C=C[C@]4(C)[C@@]3(F)[C@@H](O)C[C@@]21C [FLUOROMETHOLONE]	> 100 µM (inactive)	> 100 µM (inactive)	1.8 µM (inactive)	> 100 µM (inactive)	> 67.5 µM (inactive)	> 100 µM (inactive)	> 100 µM (inactive)	> 100 µM (inactive)	> 100 µM (inactive)	> 100 µM (inactive)	> 100 µM (inactive)	> 100 µM (inactive)	> 93.3 µM (inactive)	> 38.5 µM (inactive)	> 100 µM (inactive)	> 100 µM (inactive)	> 100 µM (inactive)	69.5 µM (inactive)	> 100 µM (inactive)	> 100 µM (inactive)
Cc1cc(C)nc(NS(=O)(=O)c2ccc(NNc3c4ccccc4nc4c(C(=O)Nc5ccc(S(N)(=O)=O)cc5)cccc34)cc2)n1	28.1 µM (inactive)	34.8 µM (inactive)	20.2 µM (inactive)	> 100 µM (inactive)	45.2 µM (inactive)	34.9 µM (inactive)	17.4 µM (inactive)	27.9 µM (inactive)	> 100 µM (inactive)	53.5 µM (inactive)	47.2 µM (inactive)	43.3 µM (inactive)	19.7 µM (inactive)	31.1 µM (inactive)	12.8 µM (inactive)	30.5 µM (inactive)	29.9 µM (inactive)	18.6 µM (inactive)	45.3 µM (inactive)	69.2 µM (inactive)
CC1=NN(c2ccccc2)C(=O)/C1=C\c1c(C)[nH]n(-c2ccccc2)c1=O	> 100 µM (inactive)	> 100 µM (inactive)	75.9 µM (inactive)	> 100 µM (inactive)	> 100 µM (inactive)	> 100 µM (inactive)	27.1 µM (inactive)	38.8 µM (inactive)	> 100 µM (inactive)	> 100 µM (inactive)	> 100 µM (inactive)	95.1 µM (inactive)	53.7 µM (inactive)	> 100 µM (inactive)	> 100 µM (inactive)	> 100 µM (inactive)	> 100 µM (inactive)	> 100 µM (inactive)	92.7 µM (inactive)	> 100 µM (inactive)
[N-]=[N+]=CC(=O)CCC(N)C(=O)O (stereo not given)	1.06 µM (active)	34.6 µM (inactive)	0.676 µM (active)	1.15 µM (inactive)	4.83 µM (inactive)	1.72 µM (inactive)	13.8 µM (inactive)	1.32 µM (inactive)	1.33 µM (inactive)	0.474 µM (active)	1.75 µM (inactive)	6.38 µM (inactive)	3.01 µM (inactive)	4.86 µM (inactive)	53.7 µM (inactive)	1.22 µM (inactive)	2.77 µM (inactive)	23.1 µM (inactive)	2.31 µM (inactive)	2.07 µM (inactive)
CC(=O)Nc1nnc(S(=O)(=O)NC(=S)Nc2ccc(Cl)cc2)s1	> 100 µM (inactive)	> 100 µM (inactive)	> 100 µM (inactive)	> 100 µM (inactive)	> 100 µM (inactive)	> 100 µM (inactive)	> 100 µM (inactive)	> 100 µM (inactive)	> 100 µM (inactive)	> 100 µM (inactive)	> 100 µM (inactive)	> 100 µM (inactive)	> 100 µM (inactive)	> 100 µM (inactive)	> 100 µM (inactive)	> 100 µM (inactive)	> 100 µM (inactive)	> 100 µM (inactive)	> 100 µM (inactive)	> 100 µM (inactive)
O=C(/C=C/c1ccccc1)CCN1CCOCC1	15.2 µM (inactive)	12.6 µM (inactive)	1.82 µM (inactive)	8.3 µM (inactive)	18.5 µM (inactive)	2.12 µM (inactive)	16.8 µM (inactive)	2.15 µM (inactive)	14.8 µM (inactive)	4.99 µM (inactive)	15 µM (inactive)	18.6 µM (inactive)	3.87 µM (inactive)	15.7 µM (inactive)	21.1 µM (inactive)	17.5 µM (inactive)	14.8 µM (inactive)	23.4 µM (inactive)	5.48 µM (inactive)	13.7 µM (inactive)
CC(=O)NC(CS/N=N/c1[nH]cnc1C(N)=O)C(=O)O (stereo not given)	6.27 µM (inactive)	53 µM (inactive)	2.14 µM (inactive)	7.24 µM (inactive)	54.5 µM (inactive)	1.16 µM (inactive)	6.93 µM (inactive)	0.791 µM (active)	2.59 µM (inactive)	> 46.8 µM (inactive)	10.4 µM (inactive)	2.16 µM (inactive)	14.9 µM (inactive)	> 76.2 µM (inactive)	2.42 µM (inactive)	27 µM (inactive)	3.21 µM (inactive)	16.9 µM (inactive)	6.15 µM (inactive)	1.75 µM (inactive)
